In patent US20260085087A1, “CHEMICAL COMPOUND COMPRISING A TRIAZINE GROUP AND METHOD FOR PRODUCING SAME” (priority 2020, published 2026):
[TzD] = triazinylamidophosphate internucleotide linkage carrying two dodecyl amine moieties; {FAM} = fluorescein (FAM) label

What was measured:
T98G cells = test: T98G cell transfection efficiency by flow cytofluorometry; type: cell-based, human; conditions: 4 hours
Protocol: (§1) To study cell penetration efficiency, oligonucleotide 5′-[FAM]-CTGACTATGAAGTAT*T-3′ (OSN4F) was used, wherein * is a position of thiazinylamidophosphate unit carrying two dodecyl moieties, and control unmodified oligonucleotide 5′-[FAM]-CTGACTATGAAGTATT-3′ (OSNF).
(§2) Cultured HEK293T and T98G human cells were plated onto the wells of a 24-well microplate in a concentration 20×10^4 cells/well (HEK293T) or 12×10^4 cells/well (T98G) in 500 μl/well IMDM media comprising 10% FBS and 1% solution of antibiotic and antimycotic agents (10 mg/ml streptomycin, 10,000 U/ml penicillin, and 25 mg/ml amphotericin (IMP Biomedicals, Germany) (hereinafter, the complete medium), and incubated for 18 hrs to provide cell attachment. Furthermore, cell medium was replaced with 200 μl/well IMDM medium in the absence of serum and antibiotic agents. Oligonucleotides (OSNF, OSN4F) were dissolved in Opti-MEM and added to the cells until the final concentration of 1 or 5 μM (50 μl/well) was achieved. […] The cells were analyzed on a flow cytometer NovoCyte 3000 (ACEA Biosciences, USA). […] Oligonucleotide penetration efficiency was characterized by two indicators: % of fluorescent cells in a population and average intensity of cell fluorescence in a sample, which were measured using flow cytometry in 4 hours after transfection. […] RFU means relative fluorescence units, LF means Lipofectamine 2000. […]

HEK293T cells [1] = test: HEK293T cell transfection efficiency by flow cytofluorometry; type: cell-based, human; conditions: 4 hours
Protocol: as §1, §2

HEK293T cells [2] = test: Comparison of cell penetration efficiency of oligonucleotides with lipophilic moieties in various modification backbones; type: cell-based, human; conditions: 4 hours after transfection
Protocol: Cultured HEK293T and T98G human cells were plated onto the wells of a 24-well microplate in a concentration 20×10^4 cells/well (HEK293T) or 12×10^4 cells/well (T98G) in 500 μl/well IMDM media comprising 10% FBS and 1% solution of antibiotic and antimycotic agents (10 mg/ml streptomycin, 10,000 U/ml penicillin, and 25 mg/ml amphotericin (IMP Biomedicals, Germany) (hereinafter, the complete medium), and incubated for 18 hrs to provide cell attachment. Furthermore, cell medium was replaced with 200 μl/well IMDM medium in the absence of serum and antibiotic agents. Oligonucleotides (OSNF, OSN4F) were dissolved in Opti-MEM and added to the cells until the final concentration of 1 or 5 μM (50 μl/well) was achieved. […] The cells were analyzed on a flow cytometer NovoCyte 3000 (ACEA Biosciences, USA). […] Oligonucleotide penetration efficiency was characterized by two indicators: % of fluorescent cells in a population and average intensity of cell fluorescence in a sample, which were measured using flow cytometry in 4 hours after transfection. Histograms A and C show % of fluorescent cells, histograms B and D show average fluorescence intensity. RFU means relative fluorescence units, LF means Lipofectamine 2000. […]
Cell fluorescence percent (left) and average fluorescence intensity (right) were measured using flow cytometry in 4 hours after transfection. […]

HEK293T cells [3] = test: Confocal microscopy of penetration into human cells; type: cell-based; conditions: 1 μM, 4 hours, no serum
Protocol: In this study, oligonucleotide 5′-[FAM]-CTGACTATGAAGTAT*T-3′ (OSN4F) was used, wherein * is a position of triazinylamidophosphate unit having two dodecyl moieties.
Cultured human cells HEK293T were plated on slides placed to the wells of the 24-well microplate, in a concentration of 6×10^4 cells/well in a complete IMDM medium and incubated at 37° C. in 5% CO2 for 12 to 18 hours to provide cell attachment. Then, the medium was replaced to IMDM, in the absence of serum and antibiotic agent, which comprises OSN4F at a concentration of 1 μM. The cells were incubated in the presence of oligonucleotide at 37° C. in 5% CO2 for 4 hours. […]
Intracellular location of oligonucleotide OSN4F was studied using confocal microscope LSM710 (Zeiss, Germany) with the plan-apochromat 63×/1.40 Oil DIC M27 (Zeiss, Germany) lens and two channels, blue and green. Fluorescence in a blue channel at exciting laser wavelength of 405 nm corresponded to NucBlue (cell nuclei staining); green channel at exciting laser wavelength of 488 nm corresponded to fluorescence of oligonucleotide OSN4F labelled with a 6-carboxyfluorescein moiety.

5′-[FAM]-CTGACTATGAAGTAT*T-3′ (CTGACTATGAAGTATT; DNA, linkages o14 [TzD]1 (s phosphorothioate, o phosphodiester), 5' {FAM}, methylation of C not given here) [OSN4F, * is a triazinylamidophosphate unit carrying two dodecyl moieties]
penetration efficiency relative to control oligonucleotide (T98G cells; 1 or 5 μM, no additional transfectants): penetrates the T98G cells more efficiently than the control oligonucleotide
penetration efficiency in T98G relative to HEK293T cells (T98G cells): reduced relative to the HEK293K kidney cells
penetration efficiency (number of transfected cells and fluorescence intensity) (HEK293T cells [1]; 1 or 5 μM, no additional transfection agent): efficiently penetrates the HEK293T cells
penetration efficiency relative to control OSNF with Lipofectamine 2000 (HEK293T cells [1]; OSN4F without transfection agent): comparable
penetration rate (cell fluorescence percent) relative to PGO, PN, ODF (HEK293T cells [2]; 1 μM): significantly higher than in other oligonucleotides used
average fluorescence intensity relative to other oligonucleotides (HEK293T cells [2]): penetrates cells in larger amounts than other oligonucleotides
intracellular location (HEK293T cells [3]): positioning in the cytoplasm and various cell compartments
